Common to all, as to assay: NCI anticancer screen, dose series, 48 h
Assay [1] has as its system CCRF-CEM.
Assay [2] concerns SK-MEL-5.
The test system of assay [3] is HCT-116.
Assay [4] has as its system HCT-15.
The subject of assay [5] is SNB-75.
The test system of assay [6] is NCI-H23.
Assay [7] concerns A498.
Assay [8] concerns HCC 2998.
Assay [9] has as its system UACC-257.
Assay [10] deals with NCI-H226.
The test system of assay [11] is A549.
The test system of assay [12] is SR.
In assay [13] the test system is NCI-H460.
Assay [14] concerns SW-620.
The subject of assay [15] is COLO 205.
Assay [16] concerns OVCAR-3.
For assay [17], the system named is DU-145.
Assay [18] relates to NCI/ADR-RES.

Each structure is given as a SMILES string.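 Values below derive from 48-hour exposures of cells grown in 96-well plates, with endpoints linearly interpolated between the two concentrations bracketing the appropriate inhibition level. Abbreviation: GI50, concentration required for 50% inhibition of growth.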 Calls of active or inactive are those of the source. Cut-off read from the data, not from the text of the source: active = GI50 up to about 1.1 µM and inactive = higher.

For the compound `CN(N=O)C(=O)NC(CCCCNC(=O)OCc1ccccc1)C(=O)OCc1ccccc1` (stereo unspecified), the GI50 in assay [1] was 25 µM (inactive); in [2] it was 20.4 µM (inactive); in [3] it was 56.8 µM (inactive); in [4] it was 36 µM; in assay [5], 18.8 µM (inactive); in [6], 20.7 µM (inactive). Besides, the GI50 in [7] is 55.5 µM (inactive); in assay [8], 23.4 µM (inactive); in [9], 16.5 µM (inactive); in [10], 42.9 µM (inactive); in assay [11], 83 µM (inactive); in [12] it was 14.9 µM (inactive). Moreover, the GI50 in [13] is 43.9 µM (inactive); in assay [14], 27.6 µM (inactive); in assay [15], 23.7 µM (inactive); in assay [16] it was 25.3 µM (inactive).

As to `O=C(/C=C/c1ccc(OCC(=O)N2CCN(c3ccccc3)CC2)cc1)c1ccccc1`, the GI50 in assay [1] is 2.84 µM (inactive); in assay [2], 7.57 µM (inactive); in assay [3], 11.7 µM (inactive); in [4] it was 7.5 µM; in assay [5], 17.9 µM (inactive); in assay [6], 17.8 µM (inactive). For the same compound, the GI50 was > 56.8 µM (inactive) in [7]; 45.4 µM (inactive) in assay [8]; 17.1 µM (inactive) in [9]; 16.9 µM (inactive) in assay [10]; 44.4 µM (inactive) in assay [11]; 2.72 µM (inactive) in assay [12]. Besides, the GI50 was > 46.1 µM (inactive) in assay [13], 3.13 µM (inactive) in assay [14], 26.1 µM (inactive) in [15] and 13.2 µM (inactive) in assay [16].

As for `C/C(=N\NC(N)=S)c1ccc(/C(C)=N/NC(N)=S)cc1`, the GI50 in assay [1] is > 100 µM (inactive); in assay [2], > 100 µM (inactive); in assay [3], > 100 µM (inactive); in assay [4], more than 100 µM; in assay [5], > 100 µM (inactive); in assay [6], > 100 µM (inactive). For the same compound, the GI50 in [7], in assay [8], in assay [9], in [10], in assay [11] and in [12] was > 100 µM (inactive) throughout. Moreover, the GI50 in assay [13], in [14], in assay [15] and in assay [16] was > 100 µM (inactive) each time.

Turning to `COc1ccccc1NC(=O)C1=C(C)NC(C)=C(C(=O)Nc2ccccc2OC)C1c1cccc2c1OCO2`, the GI50 in assay [1] is 34.6 µM (inactive); in assay [2], 46 µM (inactive); in [3], 71.9 µM (inactive); in assay [4] it was more than 100 µM; in [5], 14.1 µM (inactive); in assay [6], > 100 µM (inactive). Further, the GI50 in [7] was > 100 µM (inactive); in assay [8] it was 85.7 µM (inactive); in assay [9], > 100 µM (inactive); in assay [10], > 100 µM (inactive); in assay [11], 62.7 µM (inactive); in assay [12] it was 30.5 µM (inactive). The GI50 in [13], in assay [14], in assay [15] and in [16] was > 100 µM (inactive) each time.

Regarding `COC(=O)C(CCC1(C)OCCO1)=[N+]=[N-]`, the GI50 in assay [1] is > 100 µM (inactive); in assay [2] it was > 100 µM (inactive); in [3] it was > 100 µM (inactive); in assay [4], more than 100 µM; in assay [5], > 100 µM (inactive); in assay [6] it was > 100 µM (inactive). The GI50 in assay [7], in assay [8], in assay [9], in assay [10], in [11] and in [12] was > 100 µM (inactive) throughout. In addition, the GI50 in assay [13], in assay [14], in assay [15] and in assay [16] was > 100 µM (inactive) throughout.

`COc1cc(OC)c2c3c(OC)cc(OC)c4c(=O)c(O)c(C[C@@H](C)O)c(c5c(C[C@@H](C)O)c(O)c(=O)c1c25)c43`: the GI50 is 30.8 µM (inactive) in [17]; 14.2 µM (inactive) in assay [2]; 16 µM (inactive) in assay [3]; 19.2 µM in [4]; 14.2 µM (inactive) in assay [5]; 19 µM (inactive) in assay [6]. Further, the GI50 was 28.8 µM (inactive) in assay [7]; 16.3 µM (inactive) in assay [8]; 34.3 µM (inactive) in assay [9]; 19.6 µM (inactive) in [10]; 36.7 µM (inactive) in [11]; 27.2 µM (inactive) in [13]. The GI50 was 15.5 µM (inactive) in assay [14], 30.3 µM (inactive) in assay [18], 3.72 µM (inactive) in assay [15] and 1.02 µM (active) in assay [16].

As for `CCOC(=O)C1=C(C)N(NC(=O)Nc2ccccc2)C(=O)C1=P(c1ccccc1)(c1ccccc1)c1ccccc1`, the GI50 in assay [1] was 26.1 µM (inactive); in [2], 33.8 µM (inactive); in assay [3], 39.1 µM (inactive); in assay [4], 27.5 µM; in assay [5], 38 µM (inactive); in assay [6], 41.6 µM (inactive). The GI50 in assay [7] was 29.5 µM (inactive); in assay [8] it was 47.2 µM (inactive); in assay [9], 45.7 µM (inactive); in assay [10] it was 50 µM (inactive); in assay [11] it was 48.9 µM (inactive); in [12] it was 16.9 µM (inactive). Moreover, the GI50 in [13] is 38.6 µM (inactive); in assay [14], 31 µM (inactive); in assay [15], 25.3 µM (inactive); in assay [16], 36.5 µM (inactive).

`Nc1ccc(/N=N/c2ccc(-c3ccc(/N=N/c4c(S(=O)(=O)O)cc5cc(S(=O)(=O)O)c(/N=N/c6ccc([N+](=O)[O-])cc6)c(N)c5c4O)cc3)cc2)c2cc(S(=O)(=O)O)ccc12`: the GI50 in [1] is > 100 µM (inactive); in assay [2], > 100 µM (inactive); in [3], > 100 µM (inactive); in assay [4] it was more than 100 µM; in assay [5], 78.9 µM (inactive); in [6] it was > 100 µM (inactive). Also, the GI50 in assay [7], in [8], in assay [9], in assay [10], in [11] and in assay [12] was > 100 µM (inactive) throughout. For the same compound, the GI50 in [13], in [14], in assay [15] and in [16] was > 100 µM (inactive) in each case.

For `COc1cc([C@@H]2c3cc4c(c(O)c3C[C@H]3COC(=O)[C@@H]32)OCO4)cc(OC)c1O`, the GI50 in assay [2] is < 0.02 µM (active); in assay [3], 0.0205 µM (active); in assay [5], 25.4 µM (inactive); in assay [6] it was 0.0853 µM (active); in assay [7], < 0.02 µM (active); in [8], 0.0237 µM (active). Besides, the GI50 is < 0.02 µM (active) in [9]; < 0.02 µM (active) in [10]; < 0.02 µM (active) in assay [11]; 0.00307 µM (active) in assay [12]; < 0.02 µM (active) in [14]; 0.0231 µM (active) in [18]. The GI50 in [15] is 0.0281 µM (active).

The record behind these values is ChEMBL document CHEMBL1201862, “PubChem BioAssay data set” (2004).
